US9339554B2, “Tunable, biodegradable linker molecules for transient conjugation of components in drug delivery systems, and drug delivery systems prepared therewith” (CRISTAL DELIVERY B.V., priority 2010, dated 2016)

Experiment: In vitro release of DMS from DMS-prodrug-loaded core-cross-linked polymeric micelles
Type: physicochemical
Conditions: for 50% release of DMS: physiological conditions, prodrug covalently entrapped in CCL PM
Description: The eluent was acetonitril/H2O (23:77, v/v) with a flow rate of 1 mL/min. The sample volume was 7.5 μL. UV detection occurred at 246 nm.
The hydrolysis rate of a specific ester was pH-dependent in its turn, in that at pH 8.4 hydrolysis was accelerated as compared to the hydrolysis rate at pH 7.4. […] The same trend is consistently observed at different pH (i.e. 7.4 and 8.4) and for the different types of micelles (based on HPMAm and HEMAm).

Row | SMILES | 50% release of DMS [weeks] | DMS release rate followed by UPLC (prodrug CCL PM, buffer pH 7.4 / 8.4, 37° C.)
1 | C=C(C)C(=O)OCCS(=O)(=O)CC(=O)OCC(=O)[C@@]1(O)[C@H](C)CC2[C@@H]3CCC4=CC(=O)C=C[C@]4(C)[C@@]3(F)[C@@H](O)CC21C (stereo partly drawn) [DMSL3, 2-(2-(2-((8S,9R,10S,11S,16R,17R)-9-fluoro-11,17-dihydroxy-10,13,16-trimethyl-3-oxo-6,7,8,9,10,11,12,13,14,15,16,17-dodecahydro-3H-cyclopenta[α]phenanthren-17-yl)-2-oxoethoxy)-2-oxoethylsulfonyl)ethyl methacrylate] | ~1 | 
2 | C=C(C)C(=O)OCCSCC(=O)OCC(=O)[C@@]1(O)[C@H](C)CC2[C@@H]3CCC4=CC(=O)C=C[C@]4(C)[C@@]3(F)[C@@H](O)CC21C (stereo partly drawn) [DMSL1, 2-(2-(2-((8S,9R,10S,11S,16R,17R)-9-fluoro-11,17-dihydroxy-10,13,16-trimethyl-3-oxo-6,7,8,9,10,11,12,13,14,15,16,17-dodecahydro-3H-cyclopenta[α]phenanthren-17-yl)-2-oxoethoxy)-2-oxoethylthio)ethyl methacrylate] | ~4 | very slow release
